# In article PMC9551036, “A selective and orally bioavailable VHL-recruiting PROTAC achieves SMARCA2 degradation in vivo” (Nature Communications, 2022):
# Values joined by “and” are separate entries in the source; they are usually repeats but may differ in a detail not shown here. Equal values may be shown once. Read-outs that look alike come from different tables or passages of the source.
# Tests used:
# [1] = biological target: VCB: PROTAC: SMARCA2^BD ternary complex (Homo sapiens, UniProt P40337+P51531); assay: TR-FRET ternary complex affinity and cooperativity, SMARCA2; type: binding; parameters: P51531-2, residues 1373-1493 with additional N-terminal SM residues; GST (TEV site) (N); His6 (TEV site) (N, cleaved yes); made in house; host or cells: SMARCA2^BD: Escherichia coli BL21(DE3)
# VCB: PROTAC: SMARCA2^BD ternary complex (Homo sapiens, UniProt P40337+P51531), sequence (P51531 with tags, fused parts or gaps isoform P51531-2): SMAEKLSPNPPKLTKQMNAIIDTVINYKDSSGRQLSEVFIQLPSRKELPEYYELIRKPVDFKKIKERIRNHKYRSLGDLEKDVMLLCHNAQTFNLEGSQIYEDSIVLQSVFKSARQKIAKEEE
# VCB: PROTAC: SMARCA2^BD ternary complex (Homo sapiens, UniProt P40337+P51531), sequence (P40337 54-213): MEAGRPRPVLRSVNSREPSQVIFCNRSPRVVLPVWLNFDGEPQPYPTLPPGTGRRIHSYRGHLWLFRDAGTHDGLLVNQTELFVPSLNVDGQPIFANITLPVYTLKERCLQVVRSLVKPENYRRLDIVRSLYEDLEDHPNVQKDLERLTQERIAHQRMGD
# VCB: PROTAC: SMARCA2^BD ternary complex (Homo sapiens, UniProt P40337+P51531), sequence (Q15369 17-112 partner): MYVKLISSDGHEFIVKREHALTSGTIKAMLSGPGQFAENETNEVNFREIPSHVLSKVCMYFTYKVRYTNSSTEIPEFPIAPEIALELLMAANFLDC
# VCB: PROTAC: SMARCA2^BD ternary complex (Homo sapiens, UniProt P40337+P51531), sequence (Q15370 1-104 partner): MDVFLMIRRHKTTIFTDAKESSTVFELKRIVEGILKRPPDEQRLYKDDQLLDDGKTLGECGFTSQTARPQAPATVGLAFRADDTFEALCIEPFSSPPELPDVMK
# [2] = system: NCI-H1568 cells; assay: Cell viability assay (CellTiter Glo) in NCI-H1568; type: cell-based, human
# Description: 500–2000 cells were seeded in white, clear bottom 96-well plates (Corning or Perkin Elmer) in 180–200 µl medium per well. The next day, compounds were added using a digital dispenser and a T0 sample was measured for reference. […], and viability (luminescence) was measured using CellTiter Glo or CellTiter Glo 2.0 (Promega) according to manufacturer’s instructions after equilibrating cells and reagents at room temperature and 10–20 min incubation time while shaking.
# [3] = biological target: T1, VCB: PROTAC: SMARCA2^BD ternary complex (Homo sapiens, UniProt P51531); assay: TR-FRET ternary complex affinity and cooperativity, SMARCA2; type: binding
# T1 construct: P51531-2, residues 1373-1493 with additional N-terminal SM residues; GST (TEV site) (N); His6 (TEV site) (N, cleaved yes); made in house; host or cells: SMARCA2^BD: Escherichia coli BL21(DE3)
# T1 sequence (P51531 with tags, fused parts or gaps isoform P51531-2): as the sequence (P51531 with tags, fused parts or gaps isoform P51531-2) above
# [4] = biological target: T2, (Homo sapiens, UniProt P51532); assay: TR-FRET ternary complex affinity and cooperativity, SMARCA4; type: binding
# T2 construct: P51532, residues 1448–1569 with additional N-terminal SM residues; GST (TEV site) (N); His6 (TEV site) (N, cleaved yes); made in house; host or cells: SMARCA4^BD: Escherichia coli BL21(DE3)
# T2 sequence (P51532 1448-1569): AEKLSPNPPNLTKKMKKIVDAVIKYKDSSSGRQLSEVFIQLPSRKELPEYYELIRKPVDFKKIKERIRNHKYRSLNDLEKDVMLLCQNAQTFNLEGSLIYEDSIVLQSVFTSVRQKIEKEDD
# [5] = biological target: SMARCA4 (Homo sapiens, UniProt P51532); assay: SMARCA4 capillary electrophoresis protein assay in RKO cells; type: cell-based; parameters: endogenous in cells; host or cells: RKO, HCT116, LU99, HCC-364, HCT-15, HCC4006, SK-N-AS; settings: mean ± SD
# SMARCA4, sequence (P51532 whole entry): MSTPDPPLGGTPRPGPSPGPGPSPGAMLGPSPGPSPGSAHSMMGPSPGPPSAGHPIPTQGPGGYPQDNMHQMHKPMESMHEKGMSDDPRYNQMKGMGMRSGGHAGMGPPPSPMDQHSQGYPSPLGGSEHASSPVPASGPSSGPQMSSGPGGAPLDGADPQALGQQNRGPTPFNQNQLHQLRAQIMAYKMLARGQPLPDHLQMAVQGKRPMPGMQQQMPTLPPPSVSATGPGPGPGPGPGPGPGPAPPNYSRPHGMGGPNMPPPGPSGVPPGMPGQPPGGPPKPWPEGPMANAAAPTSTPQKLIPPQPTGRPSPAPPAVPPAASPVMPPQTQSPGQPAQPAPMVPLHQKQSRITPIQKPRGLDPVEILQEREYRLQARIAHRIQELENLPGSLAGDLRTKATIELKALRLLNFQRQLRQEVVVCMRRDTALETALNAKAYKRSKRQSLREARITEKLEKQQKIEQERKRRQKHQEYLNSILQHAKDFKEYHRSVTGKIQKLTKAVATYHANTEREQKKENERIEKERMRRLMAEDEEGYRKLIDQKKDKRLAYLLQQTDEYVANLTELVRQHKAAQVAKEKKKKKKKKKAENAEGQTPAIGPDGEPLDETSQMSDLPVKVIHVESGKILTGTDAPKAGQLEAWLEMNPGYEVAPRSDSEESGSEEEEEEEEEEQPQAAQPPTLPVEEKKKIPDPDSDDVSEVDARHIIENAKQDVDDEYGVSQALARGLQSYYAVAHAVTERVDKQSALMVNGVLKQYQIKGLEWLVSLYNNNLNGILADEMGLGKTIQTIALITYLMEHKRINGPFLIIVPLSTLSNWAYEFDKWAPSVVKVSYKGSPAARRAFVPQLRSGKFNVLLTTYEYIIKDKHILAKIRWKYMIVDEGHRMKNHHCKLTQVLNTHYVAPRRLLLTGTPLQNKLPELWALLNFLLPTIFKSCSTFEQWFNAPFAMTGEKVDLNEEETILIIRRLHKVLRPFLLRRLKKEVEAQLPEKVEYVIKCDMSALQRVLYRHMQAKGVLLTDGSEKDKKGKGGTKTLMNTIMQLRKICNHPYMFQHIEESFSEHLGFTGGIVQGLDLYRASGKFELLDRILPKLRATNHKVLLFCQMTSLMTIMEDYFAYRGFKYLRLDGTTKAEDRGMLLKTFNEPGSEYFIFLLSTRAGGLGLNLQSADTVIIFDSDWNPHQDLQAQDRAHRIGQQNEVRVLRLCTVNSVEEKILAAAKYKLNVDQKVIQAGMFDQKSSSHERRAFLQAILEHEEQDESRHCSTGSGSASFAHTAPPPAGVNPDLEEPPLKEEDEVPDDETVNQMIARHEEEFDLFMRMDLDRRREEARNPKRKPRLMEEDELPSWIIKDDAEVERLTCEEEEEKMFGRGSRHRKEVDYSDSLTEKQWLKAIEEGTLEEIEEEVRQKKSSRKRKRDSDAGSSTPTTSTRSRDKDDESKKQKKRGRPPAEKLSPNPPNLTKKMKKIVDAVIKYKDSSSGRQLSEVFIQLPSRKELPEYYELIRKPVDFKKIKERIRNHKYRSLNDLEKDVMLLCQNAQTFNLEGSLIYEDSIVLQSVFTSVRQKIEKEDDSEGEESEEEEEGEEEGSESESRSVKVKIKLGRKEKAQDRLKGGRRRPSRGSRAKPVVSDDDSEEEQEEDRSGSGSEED
# Description: 130,000–200,000 cells were seeded in 24-well plates and incubated until settled down or overnight. Compounds were dissolved in DMSO and added to cells in indicated concentrations using a digital dispenser following an optional media change. Cells were incubated for 4 or 18 h as indicated. For SMARCA2/4 half-life determination, 150,000 or 200,000 cells were seeded in 24-well plates. The next day, 50 µg/ml cycloheximide (Sigma) was added and cells were incubated for 1–24 h. For SMARCA2/4 re-synthesis measurements, 200,000 cells were seeded in 24-well plates. The next day, 100 nM compound 6 was added for 4 h to degrade SMARCA2/4, and a sample was taken as baseline for normalisation. To allow re-synthesis, a VHL binder (compound 32, 25 or 50 µM) was then added for 3 or 24 h. Medium was removed, cells were washed with PBS and lysed with 80 µl Lysis Buffer (MSD Tris Lysis Buffer (#R60TX-2) + Halt Inhibitor Cocktail (100x) + Benzonase 0.5 µL/ml). Samples were frozen at −80 °C and thawed at room temperature before use. Samples were transferred to a V-bottom plate and insoluble debris was pelleted by centrifugation for 5 min at maximum speed. The supernatant was transferred to a fresh plate. Master Mix and Ladder were prepared according to manufacturer’s instructions for 12–230 kDa Wes Separation Module, 8 × 25 capillary cartridges, Protein Simple #SM-W004 with Anti-Rabbit Detection Module for Wes, Peggy Sue or Sally Sue, Protein Simple #DM-001. 4.8 µl lysate were mixed with 1.2 µl Master Mix to achieve a protein concentration of ~0.5 µg/µl. Antibodies were diluted in Antibody Diluent II (SMARCA2 Sigma #HPA029981 RRID:AB_10602406 1:25–100, SMARCA4 Cell Signalling #49360 clone D1Q7F RRID:AB_2728743 1:15–120 or Abcam #ab110641 clone EPNCIR111A RRID:AB_10861578 1:60, GAPDH Abcam #ab9485 RRID:AB_307275 1:250). Wes plates were prepared and run according to manufacturer’s instructions. Proteins were quantified with accompanying Compass Software. SMARCA2/4 protein levels were normalised to GAPDH. […] Where applicable, curves were fitted using a 4-parametric logistic model.
# [6] = biological target: T3, PBRM1 BD (Homo sapiens, UniProt Q86U86); assay: TR-FRET binary and ternary (PROTAC + VCB) affinity, PBRM1 bromodomain; type: binding; settings: individual replicates
# T3 construct: GST (TEV site) (N); made in house; host or cells: Escherichia coli BL21(DE3)
smiles,measurement,setting,value
Cc1ncsc1-c1ccc([C@H](COC(C)(C)CN2CCC(c3ccc4c(c3)n(C3CCCC3)c3nc(=O)c5c(Br)cccc5n43)CC2)NC(=O)[C@@H]2C[C@@H](O)CN2C(=O)[C@@H](NC(=O)C2(F)CC2)C(C)(C)C)cc1 [compound 28],EC50,"[1]; PROTAC + VCB, individual replicates, read-out: Ternary SMARCA2 BD EC50 (PROTAC + VCB)",34 nM and 37.9 nM and 38.6 nM and 39.5 nM and 28.8 nM and 36.1 nM and 40.6 nM and 27.9 nM and 35.6 nM and 32 nM
same,EC50,"[1]; TR-FRET competition for SMARCA2BD, + VCB, mean ± SD, read-out: TR-FRET Ternary SMARCA2BD EC50 (PROTAC + VCB)",35 ± 4 nM
same,EC50,"[2]; NCI-H1568 ([…]), mean ± SD, read-out: EC50 cell proliferation (CellTiter Glo)",16 ± 5 nM
same,IC50,"[2]; NCI-H1568, (18h), CellTiter Glo, individual replicates, read-out: NCI-H1568 (18h) CTG",16.7 nM and 21.6 nM and 18.3 nM and 17.1 nM and 20.5 nM and 6.45 nM
same,EC50,"[3]; TR-FRET competition for SMARCA2BD, without VCB, mean ± SD, read-out: TR-FRET SMARCA2BD EC50",130 ± 18 nM
same,EC50,"[3]; binary, PROTAC alone, individual replicates, read-out: SMARCA2 BD EC50",132 nM and 140 nM and 145 nM and 139 nM and 134 nM and 133 nM and 154 nM and 106 nM and 96.3 nM and 137 nM
same,EC50,"[4]; TR-FRET competition for SMARCA4BD, without VCB, mean ± SD, read-out: TR-FRET SMARCA4BD EC50",240 ± 55 nM
same,EC50,"[4]; binary, PROTAC alone, individual replicates, read-out: SMARCA4 BD EC50",300 nM and 283 nM and 195 nM and 201 nM
same,DC50,[5]; RKO (4 h),> 25000 nM
same,DC50,[5]; RKO (18 h),159 ± 57 nM
same,SMARCA4 Dmax,[5]; RKO (18 h),14 ± 42%
same,EC50,"[6]; PROTAC + VCB, read-out: Ternary PBRM1 BD EC50 (PROTAC + VCB)",5.74 nM and 5.13 nM and 5.34 nM and 1.07 nM
same,EC50,"[6]; binary, PROTAC alone, read-out: PBRM1 EC50",37.2 nM and 28.8 nM and 29.6 nM and 10.8 nM
